What all share (assay type): cell-based
For one assay, the system named is HeLa. The experiment in a line: MTT cytotoxicity assay, HeLa. The settings on record: Homo sapiens, 48 h, mean ± SD, three independent experiments. As to the method: (§1) The in vitro cytotoxic potency of DHAA acyl-thiourea derivatives 8a–8o and 9a–9o were evaluated by 3-(4,5-dimethylthiazol-2-yl)-2,5-diphenyltetrazolium bromide (MTT) assay against HeLa, SK-OV-3 and MGC-803 tumor cell lines, with 5-FU as the positive control.
(§2) General procedure for cytotoxic evaluation in vitro: HeLa, HepG2, SK-OV-3 and MGC-803 cells were seeded into 96-well microculture plates and allowed to adhere for 24 h, respectively. After cells were exposed to compounds at concentrations from 100 to 0.01 μM for 48 h, medium was aspirated and replenished with complete medium. IC50 was evaluated by MTT tetrazolium dye assay. Each experiment was performed three times; Statistical analysis: All statistical analysis was performed with SPSS Version 10 (SPSS, Chicago, IL, USA). Data was analyzed by one-way ANOVA. Mean separations were performed using the least significant difference method. Each experiment was replicated thrice, and all experiments yielded similar results. Measurements from all the replicates were combined, and treatment effects were analyzed.
(Formazan colour is commonly taken as a measure of viable cells.)

The next assay has as its system SK-OV-3. The experiment in a line: MTT cytotoxicity assay, SK-OV-3. The settings on record: Homo sapiens, 48 h, mean ± SD, three independent experiments. As to the method: as §1, §2
The subject of another assay is MGC-803. The assay is described as follows: MTT cytotoxicity assay, MGC-803. The following applies: Homo sapiens, 48 h, mean ± SD, three independent experiments. As for the experimental part: as §1, §2
The next assay deals with HL-7702. The assay is described as follows: MTT cytotoxicity assay, HL-7702 normal cells. The settings on record: L02, 48 h, normal human cells, mean ± SD, three independent experiments. As to the method: [The source words this procedure for another cell line and reports this cell line under the same test.] as §1, §2

SMILES strings stand for the structures.

Usually IC50 stands for the midpoint of a concentration-inhibition curve. On to `CC(C)c1ccc2c(c1)CCC1[C@](C)(C(=O)NC(=S)N[C@H](Cc3ccccc3)C(=O)Nc3ccccc3Br)CCC[C@]21C` (stereo partly drawn) [Compound 9j, (1R,4aS)-N-(((R)-1-((2-Bromophenyl)amino)-1-oxo-3-phenylpropan-2-yl)carbamothioyl)-7-isopropyl-1,4a-dimethyl-1,2,3,4,4a,9,10,10a-octahydrophenanthrene-1-carboxamide], for which the IC50 in the assay with HeLa was 12.7 ± 1.03 µM; in the assay with SK-OV-3, 40.3 ± 3.41 µM; with MGC-803 it was 21.3 ± 1.27 µM; in the assay with HL-7702, 60.5 ± 3.43 µM.

For the molecule `CC(C)c1ccc2c(c1)CCC1[C@](C)(C(=O)NC(=S)N[C@H](Cc3ccccc3)C(=O)Nc3ccc(Br)cc3)CCC[C@]21C` (stereo partly drawn) [Compound 9k, (1R,4aS)-N-(((R)-1-((4-Bromophenyl)amino)-1-oxo-3-phenylpropan-2-yl)carbamothioyl)-7-isopropyl-1,4a-dimethyl-1,2,3,4,4a,9,10,10a-octahydrophenanthrene-1-carboxamide], the IC50 in the assay with HeLa worked out at 15.7 ± 1.13 µM; in the assay with SK-OV-3 it was 46.7 ± 4.76 µM; in the assay on MGC-803, 25.5 ± 2.47 µM; with HL-7702, 66.5 ± 4.48 µM.

As to `Cc1cc(C)cc(NC(=O)[C@@H](Cc2ccccc2)NC(=S)NC(=O)[C@]2(C)CCC[C@]3(C)c4ccc(C(C)C)cc4CCC23)c1` (stereo partly drawn) [Compound 9l, (1R,4aS)-N-(((R)-1-((3,5-Dimethylphenyl)amino)-1-oxo-3-phenylpropan-2-yl)carbamothioyl)-7-isopropyl-1,4a-dimethyl-1,2,3,4,4a,9,10,10a-octahydrophenanthrene-1-carboxamide], the IC50 in the assay on HeLa turned out to be 15.8 ± 1.55 µM; in the assay on SK-OV-3 it was 31.5 ± 2.23 µM; with MGC-803, 18.1 µM; in the assay on HL-7702, 53.4 ± 2.24 µM.

For `CC(C)c1ccc2c(c1)CCC1[C@](C)(C(=O)NC(=S)N[C@H](Cc3ccccc3)C(=O)Nc3cccc4ccccc34)CCC[C@]21C` (stereo partly drawn) [Compound 9m, (1R,4aS)-7-Isopropyl-1,4a-dimethyl-N-(((R)-1-(naphthalen-1-ylamino)-1-oxo-3-phenylpropan-2-yl)carbamothioyl)-1,2,3,4,4a,9,10,10a-octahydrophenanthrene-1-carboxamide], the IC50 came out at 12.8 ± 1.2 µM in the assay on HeLa, 15.3 ± 1.73 µM with SK-OV-3, 22.9 ± 1.66 µM in the assay on MGC-803 and 35.6 ± 1.53 µM with HL-7702.

Take `COc1cc(NC(=O)[C@@H](Cc2ccccc2)NC(=S)NC(=O)[C@]2(C)CCC[C@]3(C)c4ccc(C(C)C)cc4CCC23)cc(OC)c1OC` (stereo partly drawn) [Compound 9o, (1R,4aS)-7-Isopropyl-1,4a-dimethyl-N-(((R)-1-oxo-3-phenyl-1-((3,4,5-trimethoxyphenyl)amino)propan-2-yl)carbamothioyl)-1,2,3,4,4a,9,10,10a-octahydrophenanthrene-1-carboxamide]: the IC50 with HeLa was determined as 17.5 ± 1.54 µM; with SK-OV-3, 29.3 ± 2.04 µM; in the assay with MGC-803, 29.3 ± 2.09 µM; with HL-7702, 59.3 ± 2.54 µM.
